For one test, the system named is HCT116 cells. Kind of test: HCT116 cytotoxic activity assay (Alamar Blue, 72 h). The test is classed as cell-based. As to conditions: Homo sapiens, HCT-116, 72 h compound exposure, greater than 500 nM but less than or equal to 2 μM. As for the experimental part:
Representative compounds of this invention were tested for cytotoxicity using the above-described assay procedure with the following results: […]
On the technique in general: Resazurin is reduced to fluorescent resorufin, in cell work by metabolically active cells.
As usually defined, the IC50 is the midpoint of a concentration-inhibition curve. Lower therefore signals inhibition by little substance. Molecule `CC(=O)Nc1ccc(-c2cc(Nc3ccc(Oc4ccnc(C)c4)cc3)nc(N)n2)cc1` [Example 308, N-{4-[2-amino-6-({4-[(2-methylpyridin-4-yl)oxy]phenyl}amino)pyrimidin-4-yl]phenyl} acetamide] displayed an IC50 of 500 to 2000 nM.

The molecule `Nc1nc(Nc2ccc(Oc3ccnc(C4=NCCN4)c3)cc2)cc(-c2ccccc2)n1` [Example 47, N^4-{4-[2-(4,5-Dihydro-1H-imidazol-2-yl)pyridin-4-yloxy]phenyl}-6-phenylpyrimidine-2,4-diamine] came in with an IC50 of 500 to 2000 nM.

In turn, `N#Cc1cc(Oc2ccc(Nc3cc(-c4cccc(O)c4)nc(N)n3)cc2)ccn1` [Example 226] returned an IC50 of 500 to 2000 nM.

Regarding `CCOC(=O)c1cc(Oc2cncc(Cl)c2)ccc1Nc1cc(-c2ccccc2)nc(N)n1` [Example 60, ethyl 2-[(2-amino-6-phenylpyrimidin-4-yl)amino]-5-[(5-chloropyridin-3-yl)oxy]benzoate], the IC50 was 500 to 2000 nM.

The molecule `COc1ccc(-c2cc(Nc3ccc(Oc4ccnc(C)c4)cc3)nc(N)n2)cc1OC` [Example 319, 6-(3,4-dimethoxyphenyl)-N4*-{4-[(2-methylpyridin-4-yl)oxy]phenyl} pyrimidine-2,4-diamine] had an IC50 of 500 to 2000 nM.

For `Nc1nc(Nc2ccc(Oc3ccnc(C(F)(F)F)c3)cc2)cc(-c2cccc(C(F)(F)F)c2)n1` [Example 197, 6-[3-(trifluoromethyl)phenyl]-N4*-(4-{[2-(trifluoromethyl)pyridin-4-yl]oxy}phenyl)pyrimidine-2,4-diamine], the concentration for half-maximal inhibition (IC50) was in the range of 500 to 2000 nM.

`Cc1cc(Oc2ccc(Nc3cc(-c4ccccc4OC(F)(F)F)nc(N)n3)cc2)ccn1` [Example 309, N4-{4-[(2-methylpyridin-4-yl)oxy]phenyl}-6-[2-(trifluoromethoxy)phenyl]pyrimidine-2,4-diamine] returned an IC50 of 500 to 2000 nM.

The same test, now with this note: Homo sapiens, HCT-116, 72 h compound exposure, greater than 2 μM.
For the molecule `COC[C@@H]1CCCN1c1ccnc(Oc2ccc(Nc3cc(-c4ccccc4)nc(N)n3)cc2)c1` [Example 43], the IC50 is > 2000 nM.

Turning to `NC(=O)c1cc(Oc2ccc(Nc3cc(-c4cccc(CO)c4)nc(N)n3)cc2)ccn1` [Example 265, 4-[4-({2-amino-6-[3-(hydroxymethyl)phenyl]pyrimidin-4-yl}amino)phenoxy]pyridine-2-carboxamide], the IC50 was > 2000 nM.

On to `N#Cc1cc(Oc2ccc(Nc3cc(-c4ccc(Cl)c(Cl)c4)nc(N)n3)cc2)ccn1` [Example 253, 4-(4-{[2-amino-6-(3,4-dichlorophenyl)pyrimidin-4-yl]amino}phenoxy)pyridine-2-carbonitrile], for which the IC50 was > 2000 nM.

`NC(=O)c1cc(Oc2cccc(Nc3cc(-c4ccc[nH]4)nc(N)n3)c2)ccn1` [Example 301, 4-(3-{[2-amino-6-(1H-pyrrol-2-yl)pyrimidin-4-yl]amino}phenoxy) pyridine-2-carboxamide]: the IC50 is > 2000 nM.

Staying with this test, now noted: Homo sapiens, HCT-116, 72 h compound exposure, less than or equal to 500 nM.
As to `COCCOc1cc(Oc2ccc(Nc3cc(-c4ccccc4)nc(N)n3)cc2)ccn1` [Example 84, N^4-(4-{[2-(2-methoxyethoxy)pyridin-4-yl]oxy}phenyl)-6-phenylpyrimidine-2,4-diamine], the IC50 is ≤ 500 nM.

With `Nc1cc(Oc2ccc(Nc3cc(-c4ccccc4)nc(N)n3)cc2)ccn1` [Example 53, N^4-[4-(2-aminopyridin-4-yloxy)phenyl]-6-phenylpyrimidine-2,4-diamine], the IC50 is ≤ 500 nM.

For `NC(=O)c1cc(Oc2cccc(Nc3cc(-c4ccsc4)nc(N)n3)c2)ccn1` [Example 298, 4-(3-{[2-amino-6-(3-thienyl)pyrimidin-4-yl]amino}phenoxy) pyridine-2-carboxamide], the IC50 was ≤ 500 nM.

For `Nc1nc(Nc2ccc(Oc3ccnc(C(F)(F)F)c3)cc2)cc(-c2ccc(F)cc2F)n1` [Example 204, 6-(2,4-difluorophenyl)-N4*-(4-{[2-(trifluoromethyl)pyridin-4-yl]oxy}phenyl)pyrimidine-2,4-diamine], the IC50 is ≤ 500 nM.

Turning to `Nc1nc(Nc2ccc(Oc3ccnc(N4CC[C@@H](O)C4)c3)cc2)cc(-c2ccccc2)n1` [Example 146, (3R)-1-(4-{4-[(2-amino-6-phenylpyrimidin-4-yl)amino]phenoxy}pyridin-2-yl)pyrrolidin-3-ol], the IC50 was ≤ 500 nM.

Take `COC[C@@H]1CCCN1c1cc(Oc2ccc(Nc3cc(-c4ccccc4)nc(N)n3)cc2)ccn1` [Example 49, (S)—N^4-{4-[2-(2-Methoxymethylpyrrolidin-1-yl)pyridin-4-yloxy]phenyl}-6-phenylpyrimidine-2,4-diamine]: the IC50 is ≤ 500 nM.

For `COc1ccc(-c2cc(Nc3ccc(Oc4ccnc(C(F)(F)F)c4)cc3)nc(N)n2)cn1` [Example 191, 6-(6-methoxypyridin-3-yl)-N4*-(4-{[2-(trifluoromethyl)pyridin-4-yl]oxy}phenyl)pyrimidine-2,4-diamine], the IC50 was ≤ 500 nM.

As to `Cc1ccc(-c2cc(Nc3ccc(Oc4ccnc(C(N)=O)c4)cc3)nc(N)n2)cc1` [Example 267, 4-(4-{[2-amino-6-(4-methylphenyl)pyrimidin-4-yl]amino}phenoxy) pyridine-2-carboxamide], the IC50 was ≤ 500 nM.

With `N#Cc1cc(Oc2ccc(Nc3cc(-c4ccccc4F)nc(N)n3)cc2)ccn1` [Example 241, 4-(4-{[2-amino-6-(2-fluorophenyl)pyrimidin-4-yl]amino}phenoxy) pyridine-2-carbonitrile], the IC50 was ≤ 500 nM.

As for `COc1cccc(-c2cc(Nc3ccc(Oc4ccnc(C#N)c4)cc3)nc(N)n2)c1` [Example 234, 4-(4-{[2-amino-6-(3-methoxyphenyl)pyrimidin-4-yl]amino}phenoxy) pyridine-2-carbonitrile], the IC50 is ≤ 500 nM.

Consider `N#Cc1cc(Oc2ccc(Nc3cc(-c4cccc(N)c4)nc(N)n3)cc2)ccn1` [Example 238, 4-(4-{[2-amino-6-(3-aminophenyl)pyrimidin-4-yl]amino}phenoxy) pyridine-2-carbonitrile], for which the IC50 is ≤ 500 nM.

For the molecule `Nc1nc(Nc2ccc(Oc3ccnc(C(F)(F)F)c3)cc2)cc(-c2cccc(F)c2)n1` [Example 192, 6-(3-fluorophenyl)-N4*-(4-{[2-(trifluoromethyl)pyridin-4-yl]oxy}phenyl)pyrimidine-2,4-diamine], the IC50 was ≤ 500 nM.

For the molecule `NC(=O)c1cc(Oc2cccc(Nc3cc(-c4ccccc4)nc(N)n3)c2)ccn1` [Example 3, 4-{3-[(2-amino-6-phenylpyrimidin-4-yl)amino]phenoxy}pyridine-2-carboxamide], the IC50 is ≤ 500 nM.

Consider `Nc1nc(Nc2cccc(Oc3ccnc(N4CCOCC4)c3)c2)cc(-c2ccccc2)n1` [Example 120, N4*-{3-[(2-morpholin-4-ylpyridin-4-yl)oxy]phenyl}-6-phenylpyrimidine-2,4-diamine], for which the IC50 is ≤ 500 nM.

`Cc1cc(Oc2ccc(Nc3cc(-c4cccc(F)c4)nc(N)n3)cc2)ccn1` [Example 315, 6-(3-fluorophenyl)-N4*-{4-[(2-methylpyridin-4-yl)oxy]phenyl} pyrimidine-2,4-diamine]: the IC50 was ≤ 500 nM.

On to `COc1cc(-c2cc(Nc3ccc(Oc4ccnc(C(N)=O)c4)cc3)nc(N)n2)ccc1N` [Example 173, 4-(4-{[2-amino-6-(4-amino-3-methoxyphenyl)pyrimidin-4-yl]amino}phenoxy)pyridine-2-carboxamide], for which the IC50 is ≤ 500 nM.

As for `Cc1ccccc1-c1cc(Nc2ccc(Oc3ccnc(C(F)(F)F)c3)cc2)nc(N)n1` [Example 202, 6-(2-methylphenyl)-N4*-(4-{[2-(trifluoromethyl)pyridin-4-yl]oxy}phenyl)pyrimidine-2,4-diamine], the IC50 was ≤ 500 nM.

For the origin of these results see patent US7582645B2, “Pyrimidine derivatives for treatment of hyperproliferative disorders” (Bayer Pharmaceuticals Corporation, priority 2003, dated 2009).
